The text below walks through data of US11628166B2, “Therapeutic uses of compounds having combined sert, 5-HT3 and 5-HT1a activity” (H. Lundbeck A/S, priority 2007, dated 2023).

A short description of data set [1]: Contextual fear conditioning in rats. Type of data set: in vivo, rat. The following applies: for time spent freezing during the retention test: test 24 h after acquisition. The source says: The compound administered in the present experiment was 1-[2-(2,4-dimethylphenyl-sulfanyl)phenyl]piperazine HBr salt.
We have studied the effect of the compound on acquisition, consolidation and recall of contextual fear conditioning in rats. In the fear conditioning paradigm animals learn to associate a neutral environment (context, the training chamber, CS) with an aversive experience (an electrical foot-shock, US). During re-exposure to the training chamber, animals express a freezing behaviour, which is taken as a direct measure of the fear-related memory [Pavlov J. Biol. Sci., 15, 177-182, 1980]. […] Neurosci., 106, 274-285, 1992].
Adult male Sprague-Dawley rats (weighing 250-300 g at time of training) from Charles River Laboratories, housed two per cage under a 12 h light/dark cycle, were used. Food and water were available ad libitum. Rats were used 1 week after arrival. The compound was dissolved in 10% HPbetaCD and injected subcutaneously. The drug was administered in a volume of 2.5 ml/kg.
Training and testing were conducted in a soundproof chamber (30×20×40 cm) housed in an isolated room and connected to a ventilation system. Illumination was provided by a white light (60 Watt). The floor of the chamber consisted of a metal grid attached to an electric shock generator. Prior to training and testing, the chamber was cleaned with a 70% ethanol solution. A video camera allowed for behavioral observations and recording of the training session for off-line analysis.
During the acquisition animals were allowed to freely explore the novel environment for a 1 min habituation period, which co-terminated with one inescapable foot-shock (unconditioned stimulus, US) through the electrifiable grid floor. […] Animals remained in the conditioning chamber for another 60 s after the US. Freezing behaviour was scored during the first 58 s (pre-shock acquisition; experimenter blinded to groups) to determine baseline-freezing responses to the context. At the end of the acquisition animals were gently removed and placed into their home cages. After 24 h the same animals were reintroduced into the training context (fear conditioning chamber) and a 2 min retention test was performed. During this period no foot shocks were applied. Freezing behaviour was scored during the whole test period with the experimenter blinded to groups and presented as percent of total test period.

A short description of data set [2]: Microdialysis, extracellular acetylcholine levels in brain of freely moving rats. Type of data set: in vivo, rat. The following applies: 2.5-10 mg/kg s.c. As for the experimental part:
The animals were administered 1-[2-(2,4-dimethylphenylsulfanyl)phenyl]piperazine, HBr salt.
Male Sprague-Dawley rats, initially weighing 275-300 g, were used. The animals were housed under a 12-hr light/dark cycle under controlled conditions for regular in-door temperature (21±2° C.) and humidity (55±5%) with food and tap water available ad libitum.
Rats were anaesthetised with hypnorm/dormicum (2 ml/kg) and intracerebral guide cannulas (CMA/12) were stereotaxically implanted into the brain, aiming at positioning the dialysis probe tip in the ventral hippocampus (co-ordinates: 5.6 mm posterior to bregma, lateral −5.0 mm, 7.0 mm ventral to dura) or in the prefrontal cortex (co-ordinates: 3.2 mm anterior to bregma; lateral, 0.8 mm; 4.0 mm ventral to dura). […] The body temperature of the animals was monitored by rectal probe and maintained at 37° C. […]
The compound dissolved in 10% HPbetaCD and injected subcutaneously (2.5-10 mg/kg). Doses are expressed as mg salt/kg body weight. […]
Concentration of acetylcholine (ACh) in the dialysates was analysed by means of HPLC with electrochemical detection using a mobile phase consisting of 100 mM disodium hydrogenphosphate, 2.0 mM octane sulfonic acid, 0.5 mM tetramethylammonium chloride and 0.005% MB (ESA), pH 8.0. […] The latter was detected electrochemical by using a platinum electrode (Analytical cell: ESA, model 5040). […]

Data set [3] is described as follows: Hygroscopicity / water absorption on exposure to humidity. The class given is physicochemical.
The nature of a further data set: Solubility in water. The class given is physicochemical.
A short description of data set [4]: Clinical trial, sexually related adverse effects reported by patients. The class given is in vivo, human. As for the experimental part:
(§1) The HAM-D scale may be used to assess the severity of depression in patients by means of a 24 items questionnaire. Item 4, 5 and 6 of the scale relate to how the patients sleep, i.e., is it easy to fall asleep (insomnia Early), does the patient wake up during the night (Insomnia Middle), and does the patient wake up early in the morning (Insomnia Late). The compound was tested at 5 and 10 mg daily against placebo with approximately 100 patients per arm. […] It is well-known that sleep disturbances are a general adverse effect of most antidepressants. In particular SSRI's and compounds which inhibit the noradrenaline transporter are reported to give rise to problems with sleep initiation and maintenance and problems with insomnia are also often reported [Int.Clin.Psychpharm., 21 (suppl 1), S25-S29, 2006]. Others report that such compounds give rise to suppressed REM sleep, increased sleep latency, less efficient sleep, increase in nocturnal awakenings, and fragmentation of sleep [Hum.Psychopharm.Clin.Exp., 20, 533-559, 2005].
The above mentioned clinical trial also captured sexual adverse effects reported by the patients.

The target of data set [5] is Human serotonin transporter (Homo sapiens, UniProt P31645). The data set is described as follows: Human serotonin transporter, blockade of 5-HT uptake. Type of data set: biochemical.
Sequence of Human serotonin transporter (P31645 whole entry): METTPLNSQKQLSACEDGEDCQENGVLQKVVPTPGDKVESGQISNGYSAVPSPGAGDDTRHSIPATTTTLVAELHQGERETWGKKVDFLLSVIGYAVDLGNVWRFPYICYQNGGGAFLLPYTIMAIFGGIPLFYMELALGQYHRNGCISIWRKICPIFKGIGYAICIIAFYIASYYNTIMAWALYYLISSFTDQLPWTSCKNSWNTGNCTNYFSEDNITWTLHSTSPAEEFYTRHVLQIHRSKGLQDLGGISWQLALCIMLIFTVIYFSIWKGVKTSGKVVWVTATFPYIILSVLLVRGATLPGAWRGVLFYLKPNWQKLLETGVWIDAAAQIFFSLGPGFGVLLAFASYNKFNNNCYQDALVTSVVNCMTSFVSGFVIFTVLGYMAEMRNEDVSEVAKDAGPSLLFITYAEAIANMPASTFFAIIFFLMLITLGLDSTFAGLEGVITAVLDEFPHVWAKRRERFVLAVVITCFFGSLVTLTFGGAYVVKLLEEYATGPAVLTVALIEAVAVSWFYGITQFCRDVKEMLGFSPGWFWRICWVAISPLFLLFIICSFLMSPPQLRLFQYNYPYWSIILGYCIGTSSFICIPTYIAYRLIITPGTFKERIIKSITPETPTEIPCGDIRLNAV
Data set [6] in a line: Mouse intradermal formalin test. The class given is in vivo. The following applies: ~20-30 minutes after formalin. As for the experimental part: In this model, mice receive an injection of formalin (4.5%, 20 μl) into the left hind paw. The irritation caused by the formalin injection elicits a characteristic biphasic behavioural response, as quantified by the amount of time spent licking the injured paw.
The first phase (˜0-10 minutes) represents direct chemical irritation and nociception, whereas the second phase (˜20-30 minutes) is thought to represent pain of […] origin. The two phases are separated by a quiescent period in which behaviour returns to normal. The effectiveness of test compounds to reduce the painful stimuli is assessed by counting the amount of time spent licking the injured paw in the two phases.

The nature of data set [7]: Clinical trial, HAM-D items 4, 5 and 6 (insomnia early, middle, late). The class given is in vivo, human. The following applies: 5 and 10 mg daily vs placebo, 6 weeks, approx. 100 patients per arm. As for the experimental part: as §1

The term IC50 denotes the concentration needed to halve the response being measured. A higher IC50 goes with lower potency.

As for `Br.Cc1ccc(Sc2ccccc2N2CCNCC2)c(C)c1` [1-[2-(2,4-dimethylphenylsulfanyl)phenyl]piperazine HBr salt], the “time spent freezing during the retention test” value in data set [1] (5 mg/kg s.c. 1 h prior to acquisition, n=6) amounted to 39.24±13.76%; in data set [1] (5 mg/kg s.c. after the acquisition session, n=8, p<0.05), 45.58±4.50%; in data set [1] (10 mg/kg s.c. 1 h prior to acquisition, n=10, p<0.01) it was 52.15±5.68%. Moreover, the “freezing behaviour during the memory test” value in data set [1] (5 mg/kg s.c. 1 h prior to the retention test, n=9, p<0.05) came to 12.86±3.57%. The “baseline freezing behaviour before the foot shock” value in data set [1] (1, 5 and 10 mg/kg s.c., 1 h prior to acquisition) is reported as “does not affect baseline freezing behaviour”. Further, the “extra-cellular levels of ACh in prefrontal cortex” value in data set [2] (rat prefrontal cortex) was “significantly increased”. The “extra-cellular levels of ACh in ventral hippocampus” value in data set [2] (rat ventral hippocampus) is on record as “significantly increased”.
Consider `Cc1ccc(Sc2ccccc2N2CCNCC2)c(C)c1` [Crystalline base, 1-[2-(2,4-dimethylphenylsulfanyl)-phenyl]piperazine], for which, in data set [3], the hygroscopicity result was “not hygroscopic”.
Consider `Br.Cc1ccc(Sc2ccccc2N2CCNCC2)c(C)c1` [alpha form of the hydrobromide], for which the solubility in water in “Solubility in water” was 2000 µg/mL.
In turn, `Br.Cc1ccc(Sc2ccccc2N2CCNCC2)c(C)c1` [beta form of the hydrobromide] registered a solubility in water in the data set “Solubility in water” of 1200 µg/mL.
On to `Cc1ccc(Sc2ccccc2N2CCNCC2)c(C)c1` [compound I, 1-[2-(2,4-dimethylphenyl-sulfanyl)-phenyl]piperazine], for which, in data set [4] (5 mg daily), the “number of patients reporting Anorgasmia” value is recorded as 0, the “number of patients reporting Ejaculation delayed” value is 0, the “number of patients reporting Erectile dysfunction” value was 0 and the “number of patients reporting Libido decreased” value is 1. For the same compound, in data set [4] (5 mg daily), the “number of patients reporting Loss of libido” value turned out to be 1, the “number of patients reporting Orgasm abnormal” value is recorded as 0 and the “number of patients reporting Orgasmic sensation decreased” value came out at 0. For the same compound, in data set [4] (10 mg daily), the “number of patients reporting Anorgasmia” value stood at 0, the “number of patients reporting Ejaculation delayed” value worked out at 0, the “number of patients reporting Erectile dysfunction” value is given as 0 and the “number of patients reporting Libido decreased” value came to 1. For the same compound, in data set [4] (10 mg daily), the “number of patients reporting Loss of libido” value is recorded as 0, the “number of patients reporting Orgasm abnormal” value was determined as 0 and the “number of patients reporting Orgasmic sensation decreased” value was 0. The IC50 in data set [5] came out at 5.4 nM. For the same compound, the “second phase pain scores (time spent licking the paw)” value in data set [6] was “significant reduction”. For the same compound, in data set [7], the “change in sleep pattern, HAM-D items 4-6” value is “large and dose dependent improvement of the sleep pattern”.
Turning to `Br.Cc1ccc(Sc2ccccc2N2CCNCC2)c(C)c1` [gamma form of the hydrobromide], in data set [3] (30% RH at room temperature), the water absorbed entry is “about 2%”.
Take `Br.Cc1ccc(Sc2ccccc2N2CCNCC2)c(C)c1` [hemi hydrate of the hydrobromide]: the water content entry in data set [3] (room temperature and 95% RH) is “about 3.7%”.
